Laboratory results reported in patent US20260364101A1, “OLEUROPEIN IN THE MANAGEMENT OF CANCER” (FUNDACIÓN MIGUEL SERVET, priority 2023, published 2026).
“Also recorded” adds a separate entry of the source.

Experiments:
MDSCs [1] = experiment: ex vivo differentiated MDSCs treated with compound, marker expression by flow cytometry (FIG. 1a); assay type: cell-based, mouse; settings: oleuropein 50 μM
Procedure: (§1) Immunosuppressive myeloid cell subsets resembling tumor-infiltrating subsets (g-MDSCs, m-MDSCs and TAMs) were differentiated from mouse bone marrow following published procedures using conditioning medium produced by LLC tumor cells stably expressing GMCSF and MCSF cells. g- and m-MDSCs were purified using the myeloid-derived suppressor cell isolation kit (Miltenyi Biotec, Bergisch, Germany) according to manufacturer's recommendations. MDSCs and TAMs were seeded with 500 nM BML-275 or 50 μM oleuropein and incubated for seven days.
(§2) Surface and intracellular staining were carried out as described before with the following fluorochrome-conjugated antibody clones: AF488 anti-CD49d (R1-2), PE anti-CD4 (GK1.5), APCanti-CD8(53-6.7), brilliant Violet 510™ anti-I-A/I-E (M5/114.15.2,PE/Cyanine7anti-Ly-6G (1A8), and APC anti-CD80 (16-10A1) (Biolegend), FITC anti-IL-12 (C15.6) and BV421 anti-IL-2 (JES6-5H4) (BD Bioscience), APC-Vio® 770 anti-Ly-6C (REA796), PE REAfinity™ anti-F4/80 (REA126), and APC anti-CD68 (REA886) (Miltenyi), PerCP-Cyanine5.5 Anti-Human/Mouse CD11b (M1/70) (Tonbo), and AF488 anti-IFNγ (Clone XMG1.2) (BD Pharmigen). For human cells, it was used the following fluorochrome-conjugated antibodies: PerCP-Cy5.5-anti-CD11b (integrina alfa M) (M1/70), Violet Fluor 450 anti-CD14 antibody (61D3) (Tonbo), PE anti-CD115 (CSF-1R) (9-4D2-1E4) (Biolegend), PE-Cy™7 anti-CD11c (Clone B-ly6) (BD Bioscience), and APC anti-HLA-DR (REA517) (Miltenyi).
(§3) Data were collected using the FACSCanto Flow Cytometer (BD Biosciences) for ex vivo and in vitro experiments at Navarrabiomed Biomedical Research Center and Cyroflex LX flow cytometer (Beckman Counter). Data were analyzed with Flowjo.

TAMs = experiment: ex vivo differentiated TAMs treated with compound, marker expression by flow cytometry (FIG. 1b); assay type: cell-based, mouse; settings: oleuropein 50 μM
Procedure: as §1, §2, §3

CD4 T cells = experiment: mixed lymphocyte reaction (MLR) with MDSCs as stimulator cells (FIG. 1c,d); assay type: cell-based, mouse
Procedure: MLR were carried out following standard procedures. Briefly, 100,000 MDSCs or TAMs from C57BL/6 mice were co-cultured in 96-well plates with 100,000 lymphocytes from BALB/c mice. Co-cultured cells were treated with 50 µM oleuropein and compared with control vehicle. After 5 days, T-lymphocyte activation, differentiation and proliferation were assessed by flow cytometry. T-cell activation and proliferation markers (Ki-67) and pro-inflammatory cytokine production (IL-2 and IFNγ) were evaluated by flow cytometry in CD4 and CD8 T cells as described before.
as §2

g-MDSC = experiment: quantitative proteomics and Ingenuity Pathway Analysis of g-MDSC; assay type: cell-based, mouse
Procedure: as §1
A unique proteomic experiment was carried out with five biological replicates per sample (m-MDSC, g-MDSC and TAM). Cells were homogenized in a lysis buffer containing 7 M urea, 2 M thiourea 50 mM DTT. The homogenates were spun down at 14000 g for 1 h at 15 °C. Before proteomic analysis, protein extracts were diluted with Laemmli sample buffer in 100 μL and loaded into a 0.75 mm thick polyacrylamide gel with a 4% stacking gel casted over a 12.5% resolving gel. The run was stopped as soon as the front entered 3 mm into the resolving gel so that the whole proteome became concentrated in the stacking/resolving gel interface. Bands were stained with Coomassie Brilliant Blue, excised from the gel and protein enzymatic cleavage was carried out with trypsin (Promega; 1:20, w/w) at 37 °C for 16 h as previously described. Purification and concentration of peptides was performed using C18 Zip Tip Solid Phase Extraction (Millipore).
Peptide mixtures were separated by reverse phase chromatography using an UltiMate 3000 UHLPC System (Thermo Scientific) fitted with an Aurora packed emitter column (lonopticks, 25 cm×75 μm ID, 1.6 μm C18). Samples were first loaded for desalting and concentration into an Acclaim PepMap column (ThermoFisher, 0.5 cm×300 μm ID, 5 μm C18) packed with the same chemistry as the separating column. Mobile phases were 100% water 0.1% formic acid (FA) (buffer A) and 100% Acetonitrile 0.1% FA (buffer B). Column gradient was developed in a 120 min two step gradient from 5% B to 20% B in 90 min and 20% B to 32% B in 30 min. Column was equilibrated in 95% B for 10 min and 5% B for 20 min. During the whole process, the precolumn was in line with the column and the flow maintained all along the gradient at 300 nl/min. The column temperature was maintained at 40 °C using an integrated column oven (PRSO-V2, Sonation, Biberach, Germany) and interfaced online with the Orbitrap Exploris 480 MS. Spray voltage were set to 2 kV, funnel RF level at 40, and heated capillary temperature at 300 °C. For DDA experiments full MS resolutions were set to […] at m/z 200 and full MS AGC target was set to Standard with an IT mode Auto. Mass range was set to 375-1500. AGC target value for fragment spectra was set to Standard with a resolution of 15,000 and 3 seconds for cycle time. The intensity threshold was kept at 8E3. Isolation width was set at 1.4 m/z. Normalized collision energy was set at 30%. All data were acquired in centroid mode using positive polarity and peptide match was set to off, and isotope exclusion was on.
Raw files were processed with MaxQuant v1.6.17.0 using the integrated Andromeda Search engine. All data were searched against a target/decoy version of the mouse Uniprot Reference Proteome with March 2021 release. First search peptide tolerance was set to 20 ppm, main search peptide tolerance was set to 4.5 ppm. Fragment mass tolerance was set to 20 ppm. Trypsin was specified as enzyme, […] carbamidomethylation of cysteine was specified as fixed modification and peptide N-terminal acetylation, oxidation of methionine, deamidation of asparagine and glutamine and pyro-glutamate formation from glutamine and glutamate were considered variable modifications with a total of two variable modifications per peptide. […]

TAMCs = experiment: apoptotic effect on myeloid cell populations; assay type: cell-based
MDSCs [2] = experiment: morphology of ex vivo MDSC cultures, phase contrast micrographs (FIG. 2a); assay type: cell-based, mouse; settings: MDSCs treated with oleuropein
Procedure: as §1

**Q.** Which “polarization of MDSCs” value (MDSCs [1]) does the source give for C/C=C1/[C@H](O[C@@H]2O[C@H](CO)[C@@H](O)[C@H](O)[C@H]2O)OC=C(C(=O)OC)[C@H]1CC(=O)OCCc1ccc(O)c(O)c1 [oleuropein] here?
**A.** polarized MDSCs and TAMs into activated myeloid cells

**Q.** What about the IL-12 (MDSCs [1]; MDSCs) of the same molecule?
**A.** significant increase

**Q.** And the “cells co-expressing MHC-II and CD80” value (TAMs; BML-275 500 nM, TAMs)?
**A.** significant elevation

**Q.** And the “polarization of TAMs” value (TAMs)?
**A.** polarized MDSCs and TAMs into activated myeloid cells; also recorded: polarized TAMs to activated macrophages

**Q.** And the IL-12 production (TAMs; TAMs)?
**A.** upregulated IL-12 production only in the presence of oleuropein

**Q.** What about the “T cell activation capacities” value (CD4 T cells; oleuropein-reprogrammed MDSCs and TAMs) of the same molecule?
**A.** enhanced T cell activation capacities

**Q.** What about the immune cell activation (CD4 T cells; particularly CD4 T cell activation) of the same molecule?
**A.** induces an immune cell activation

**Q.** What about the “CD4 T cell stimulation assessed by IFNγ and IL-2 production” value (CD4 T cells; treated MDSCs as stimulators, 5 days) of the same molecule?
**A.** potently stimulated

**Q.** And the AMPK signaling (g-MDSC; IPA, g-MDSC)?
**A.** upregulation

**Q.** And the EIF2 signalling (g-MDSC; IPA, g-MDSC)?
**A.** downmodulated

**Q.** What about the NET signaling (g-MDSC; IPA, g-MDSC) of the same molecule?
**A.** upregulation

**Q.** What about the estrogen receptor signalling (g-MDSC; IPA, g-MDSC) of the same molecule?
**A.** downmodulated

**Q.** What about the fatty acid beta-oxidation (g-MDSC; IPA, g-MDSC) of the same molecule?
**A.** activated

**Q.** And the fmIP signaling (g-MDSC; IPA, g-MDSC)?
**A.** upregulation

**Q.** What about the “granzyme A signalling” value (g-MDSC; IPA, g-MDSC) of the same molecule?
**A.** downmodulated

**Q.** What about the mTOR signaling (g-MDSC; IPA, g-MDSC) of the same molecule?
**A.** upregulation

**Q.** And the phospholipids (g-MDSC; IPA, g-MDSC)?
**A.** decrease

**Q.** And the “upstream regulator E2f3” value (g-MDSC; IPA, g-MDSC)?
**A.** decrease

**Q.** And the “upstream regulator Eif6” value (g-MDSC; IPA, g-MDSC)?
**A.** increase

**Q.** And the “upstream regulator Stat4” value (g-MDSC; IPA, g-MDSC)?
**A.** inhibited

**Q.** And the “upstream regulator Tbk1” value (g-MDSC; IPA, g-MDSC)?
**A.** inhibited

**Q.** What about the “cellular programming / proteome of g-MDSC” value (g-MDSC; g-MDSC treated with oleuropein) of the same molecule?
**A.** acquiring an entirely different proteome

**Q.** And the “differentiation of myeloid cells to g-MDSC” value (g-MDSC; g-MDSC treated with oleuropein)?
**A.** prevented

**Q.** What about the apoptotic effect (TAMCs) of the same molecule?
**A.** does not provide any apoptotic effect

**Q.** And the morphology (MDSCs [2])?
**A.** acquired a dendritic cell-like morphology
